# Calls of active or inactive are those of the source. The rule behind the calls is not given here.
# Tested on: rodent carcinogenicity bioassays, tumor incidence
# Assay: CCRIS carcinogenicity studies
# Method in brief: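 NCI-built, expert-reviewed records of carcinogenicity and related test outcomes (mutagenicity, tumor promotion/inhibition) compiled from published and report sources, historical span 1985-2011, not updated.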
structure (smiles),measurement,setting,value
C=CC#N,carcinogen call,"Species: HUMAN, Route: INHALATION, Tumor Site: Type of Lesion: LUNG, COLON",active; positive
same,carcinogen call,"Species: MOUSE, Strain/Sex: B6C3F1/FEMALE, Route: GAVAGE, Dose: 0, 2.5, 10, 20 MG/KG 5D/WK FOR 104-105 WK (STUDY DURATION: 104-105 WK), Dose: 0, 2.5, 10, 20 MG/KG 5D/WK FOR 104-105 WK (STUDY DURATION: 104-105 WK), Tumor Site: Type of Lesion: FORESTOMACH: SQUAMOUS CELL PAPILLOMA, SQUAMOUS CELL CARCINOMA, SQUAMOUS CELL PAPILLOMA OR CARCINOMA, HARDERIAN GLAND: AD",active; positive
same,carcinogen call,"Species: MOUSE, Strain/Sex: B6C3F1/FEMALE, Route: GAVAGE, Dose: 0, 2.5, 10, 20 MG/KG 5D/WK FOR 104-105 WK (STUDY DURATION: 104-105 WK), Dose: 0, 2.5, 10, 20 MG/KG 5D/WK FOR 104-105 WK (STUDY DURATION: 104-105 WK), Tumor Site: Type of Lesion: OVARY: MALIGNANT GRANULOSA CELL TUMOR, LUNG (ALVEOLAR/BRONCHIOLAR): ADENOMA OR CARCINOMA",equivocal
same,carcinogen call,"Species: MOUSE, Strain/Sex: B6C3F1/FEMALE, Route: GAVAGE, Dose: 0, 2.5, 10, 20 MG/KG/D 5 D/WK FOR 105 WK (STUDY DURATION: 105 WK), Dose: 0, 2.5, 10, 20 MG/KG/D 5 D/WK FOR 105 WK (STUDY DURATION: 105 WK), Tumor Site: Type of Lesion: FORESTOMACH: SQUAMOUS CELL PAPILLOMA, SQUAMOUS CELL CARCINOMA, SQUAMOUS CELL PAPILLOMA OR CARCINOMA, EPITHELIAL HYPERPLA",active; positive
same,carcinogen call,"Species: MOUSE, Strain/Sex: B6C3F1/MALE, Route: GAVAGE, Dose: 0, 2.5, 10, 20 MG/KG 5D/WK FOR 104-105 WK (STUDY DURATION: 104-105 WK), Dose: 0, 2.5, 10, 20 MG/KG 5D/WK FOR 104-105 WK (STUDY DURATION: 104-105 WK), Tumor Site: Type of Lesion: FORESTOMACH: SQUAMOUS CELL PAPILLOMA, SQUAMOUS CELL CARCINOMA, SQUAMOUS CELL PAPILLOMA OR CARCINOMA, HARDERIAN GLAND: AD",active; positive
same,carcinogen call,"Species: MOUSE, Strain/Sex: B6C3F1/MALE, Route: GAVAGE, Dose: 0, 2.5, 10, 20 MG/KG/D 5 D/WK FOR 105 WK (STUDY DURATION: 105 WK), Dose: 0, 2.5, 10, 20 MG/KG/D 5 D/WK FOR 105 WK (STUDY DURATION: 105 WK), Tumor Site: Type of Lesion: FORESTOMACH: SQUAMOUS CELL PAPILLOMA, SQUAMOUS CELL CARCINOMA, SQUAMOUS CELL PAPILLOMA OR CARCINOMA, EPITHELIAL HYPERPLA",active; positive
same,carcinogen call,"Species: RAT, Route: INHALATION, Tumor Site: Type of Lesion: MAMMARY GLAND, NERVOUS SYSTEM (CENTRAL), EAR (ZYMBAL GLAND), Tumor Site: Type of Lesion: MAMMARY GLAND, NERVOUS SYSTEM (CENTRAL), EAR (ZYMBAL GLAND)",active; positive
same,carcinogen call,"Species: RAT, Route: ORAL, Tumor Site: Type of Lesion: FORESTOMACH, STOMACH, NERVOUS SYSTEM (CENTRAL), EAR (ZYMBAL GLAND), Tumor Site: Type of Lesion: FORESTOMACH, STOMACH, NERVOUS SYSTEM (CENTRAL), EAR (ZYMBAL GLAND)",active; positive
same,carcinogen call,"Species: RAT, Strain/Sex: F344/FEMALE, Route: ORAL, Dose: 0, 1, 3, 10, 30, 100 PPM IN DRINKING WATER FOR LIFETIME (STUDY DURATION: 26 MO), Dose: 0, 1, 3, 10, 30, 100 PPM IN DRINKING WATER FOR LIFETIME (STUDY DURATION: 26 MO), Tumor Site: Type of Lesion: BRAIN: ASTROCYTOMA, ZYMBAL'S GLAND: SQUAMOUS CELL PAPILLOMA, ADENOMA/CARCINOMA, MAMMARY GLAND: FIBROADENOMA, FORESTOMAC, Tumor Site: Type of Lesion: BRAIN: ASTROCYTOMA, ZYMBAL'S GLAND: SQUAMOUS CELL PAPILLOMA, ADENOMA/CARCINOMA, MAMMARY GLAND: FIBROADENOMA, FORESTOMAC",active; positive
same,carcinogen call,"Species: RAT, Strain/Sex: F344/MALE, Route: ORAL, Dose: 0, 1, 3, 10, 30, 100 PPM IN DRINKING WATER FOR LIFETIME (STUDY DURATION: 26 MO), Dose: 0, 1, 3, 10, 30, 100 PPM IN DRINKING WATER FOR LIFETIME (STUDY DURATION: 26 MO), Tumor Site: Type of Lesion: BRAIN: ASTROCYTOMA, SPINAL CORD: ASTROCYTOMA, ZYMBAL'S GLAND: SQUAMOUS CELL PAPILLOMA, ADENOMA/CARCINOMA, FORESTOMACH: S, Tumor Site: Type of Lesion: BRAIN: ASTROCYTOMA, SPINAL CORD: ASTROCYTOMA, ZYMBAL'S GLAND: SQUAMOUS CELL PAPILLOMA, ADENOMA/CARCINOMA, FORESTOMACH: S",active; positive
same,carcinogen call,"Species: RAT, Strain/Sex: SPRAGUE-DAWLEY/FEMALE, Route: GAVAGE, Dose: 0, 0.1, 10 MG/KG/D 7D/WK FOR 20 MO (STUDY DURATION: 20 MO), Dose: 0, 0.1, 10 MG/KG/D 7D/WK FOR 20 MO (STUDY DURATION: 20 MO), Tumor Site: Type of Lesion: BRAIN: ASTROCYTOMA, ZYMBAL'S GLAND/EAR CANAL: CARCINOMA, FORESTOMACH: SQUAMOUS CELL PAPILLOMA/PAPILLOMA, SQUAMOUS CELL C, Tumor Site: Type of Lesion: BRAIN: ASTROCYTOMA, ZYMBAL'S GLAND/EAR CANAL: CARCINOMA, FORESTOMACH: SQUAMOUS CELL PAPILLOMA/PAPILLOMA, SQUAMOUS CELL C",active; positive
same,carcinogen call,"Species: RAT, Strain/Sex: SPRAGUE-DAWLEY/FEMALE, Route: GAVAGE, Dose: 0, 5 MG/KG BW IN OLIVE OIL 3/WK FOR 52 WK (STUDY DURATION: LIFETIME), Tumor Site: Type of Lesion: [BRAIN WAS ONLY SITE EVALUATED]",inactive; negative
